Read-outs that look alike come from different tables or passages of the source.
Legend:
[1] = Particle size and polydispersity index (PDI) by Dynamic Light Scattering; assay type: physicochemical
Method: (§1) Lipid nanoparticles (LNPs) were formed or formulated by rapid mixing of an ethanol phase and an aqueous phase using a microfluidic device. The aqueous phase included a 50 mM citrate buffer (pH 5.5). The ethanol phase included an ionizable lipid (as described herein), cholesterol (Jiangsu Southeast Nanomaterials), 1,2-diastearoyl-sn-glycero-3-phosphocholine (DSPC) (Jiangsu Southeast Nanomaterials) and 1,2-dimyristoyl-rac-glycero-3-methoxypolyethylene glycol-2000 (DMG-PEG2000) (SINOPEG). A series of ionizable lipids were evaluated. These four lipid components were mixed at defined molar ratios in ethanol, for instance, at a molar ratio of 48:40.5:10:1.5 (ionizable lipid:cholesterol:DSPC:DMG-PEG2000). The generated LNP particles were purified in citrate buffer (containing sucrose) and characterized with respect to particle size, polydispersity index (PDI) and ionizable lipid concentration. The LNP solution was then diluted to the target concentration and stored at 2-8° C.
(§2) In the case of a filled LNP, for example, an LNP-encapsulated S-2P RNA liquid drug product, the preparation protocol is essentially the same, except that it was an aqueous solution of S-2P RNA in citrate buffer pH 5-6 that constitutes the aqueous phase for LNP formation. The LNP-encapsulated RNA formulation is also referred to as “RNA-LNP” in this disclosure. Regarding characterization, particle size and polydispersity index (PDI) of the RNA-LNP were determined by Dynamic Light Scattering (DLS); RNA encapsulation efficiency and concentration were determined by means of Ribogreen® assay and RNA purity was determined by agarose gel electrophoresis.
(§3) The “ready-to-use” RNA product was manufactured by transferring a predetermined amount of already formed LNP in solution to a sealed vial containing the lyophilized RNA composition, followed by mixing at room temperature. The amount of LNP added per vial (e.g., 30-100 μg RNA per vial) was determined based on the molar ionizable lipid:RNA (N/P) molar ratio of 7. In this disclosure, “ready-to-use” S-2P RNA formulations (also referred to as “LNP(S-2P RNA)”) containing 30-100 μg/mL S-2P RNA were prepared, and then characterized with respect to particle size, polydispersity index, as well as RNA concentration, complexation efficiency, and purity using the same methods as described above in Example 3.

[2] = RNA encapsulation/complexation efficiency by Ribogreen assay; assay type: physicochemical
Method: as §2, §3

[3] = tested on: BHK-21 cells; assay type: cell-based; conditions: 4 μg
[4] = tested on: Vero E6 cells; assay type: cell-based; conditions: 4 μg
[5] = Stability of blank-LNP at 2-8° C. (particle size, PDI); assay type: physicochemical; conditions: blank-LNP 48/40.5/10/1.5 mol %
Method: as §1
Each generated blank-LNP formulation was added to and mixed with lyophilized S2P RNA, altogether yielding a series of “ready-to-use” S2P RNA test items containing the different ionizable lipids. The pharmaceutical characteristics (Table 3) and in vitro transfection efficiency (Table 4) of these “ready-to-use” RNA test items were compared head-to-head. In parallel, the stability profiles of these […] blank-LNP formulations (i.e. without RNA complexation) were assessed at 2-8° C. (see Table 5).
The generated fourteen blank-LNP formulations were characterized in terms of particle size and PDI, both at the end of manufacturing (T=0) and 8-week storage at 2-8° C. […] (defined as size increase ≤20 nm in 8 weeks), namely DMG-PEG2000 between at least 1-4 mol %, DSPC between at least 5-20 mol %, ionizable lipid between at least 30-70 mol % and cholesterol between at least 18.5-58.5 mol %.

[6] = 48/40.5/10/1.5 mol %, blank-LNP added to lyophilized S2P RNA (55 ug/vial), N/P 7
[7] = blank-LNP, 48/40.5/10/1.5 mol % ionizable lipid/cholesterol/DSPC/DMG-PEG
[8] = ionizable lipid/Chol/DSPC/DMG-PEG 20/57.0/20/3.0 mol %
[9] = ionizable lipid/Chol/DSPC/DMG-PEG 30/55.0/12/3.0 mol %
[10] = ionizable lipid/Chol/DSPC/DMG-PEG 40/48.5/10/1.5 mol %
[11] = ionizable lipid/Chol/DSPC/DMG-PEG 45/43.5/10/1.5 mol %
[12] = ionizable lipid/Chol/DSPC/DMG-PEG 50/38.5/10/1.5 mol %
[13] = ionizable lipid/Chol/DSPC/DMG-PEG 60/30.0/8.5/1.5 mol %
[14] = ionizable lipid/Chol/DSPC/DMG-PEG 70/22.5/6/1.5 mol %
[15] = ionizable lipid/Chol/DSPC/DMG-PEG 70/22.5/6.0/1.5 mol %

Structure (SMILES): CCCCCCCCCOC(=O)CCCCCCCOc1ccc(OCCCCCCCC(=O)OC(CCCCCCCC)CCCCCCCC)cc1COC(=O)CCCN(C)C
- “Ready-to-use” S2P RNA formulation PDI [1, 6]: 0.12
- “Ready-to-use” S2P RNA formulation Size [1, 6]: 173 nm
- Blank-LNP PDI [1, 7]: 0.13
- Blank-LNP Size [1, 7]: 88 nm
- Blank-LNP PDI [1, 8]: 0.18
- Blank-LNP Size [1, 8]: 82 nm
- “Ready-to-use” S2P RNA PDI [1, 8]: 0.21
- “Ready-to-use” S2P RNA Size [1, 8]: 157 nm
- Blank-LNP PDI [1, 9]: 0.2
- Blank-LNP Size [1, 9]: 75 nm
- “Ready-to-use” S2P RNA PDI [1, 9]: 0.21
- “Ready-to-use” S2P RNA Size [1, 9]: 125 nm
- Blank-LNP PDI [1, 10]: 0.12
- Blank-LNP Size [1, 10]: 90 nm
- “Ready-to-use” S2P RNA PDI [1, 10]: 0.18
- “Ready-to-use” S2P RNA Size [1, 10]: 169 nm
- Blank-LNP PDI [1, 11]: 0.04
- Blank-LNP Size [1, 11]: 87 nm
- “Ready-to-use” S2P RNA PDI [1, 11]: 0.12
- “Ready-to-use” S2P RNA Size [1, 11]: 151 nm
- Blank-LNP PDI [1, 12]: 0.11
- Blank-LNP Size [1, 12]: 83 nm
- “Ready-to-use” S2P RNA PDI [1, 12]: 0.13
- “Ready-to-use” S2P RNA Size [1, 12]: 147 nm
- Blank-LNP PDI [1, 13]: 0.15
- Blank-LNP Size [1, 13]: 76 nm
- “Ready-to-use” S2P RNA PDI [1, 13]: 0.13
- “Ready-to-use” S2P RNA Size [1, 13]: 143 nm
- Blank-LNP PDI [1, 14]: 0.21
- Blank-LNP Size [1, 14]: 77 nm
- “Ready-to-use” S2P RNA PDI [1, 14]: 0.16
- “Ready-to-use” S2P RNA Size [1, 14]: 146 nm
- “Ready-to-use” S2P RNA formulation RNA complexation efficiency [2, 6]: 42%
- “Ready-to-use” S2P RNA, RNA complex. efficiency [2, 8]: 54%
- “Ready-to-use” S2P RNA, RNA complex. efficiency [2, 9]: 61%
- “Ready-to-use” S2P RNA, RNA complex. efficiency [2, 10]: 51%
- “Ready-to-use” S2P RNA, RNA complex. efficiency [2, 11]: 50%
- “Ready-to-use” S2P RNA, RNA complex. efficiency [2, 12]: 48%
- “Ready-to-use” S2P RNA, RNA complex. efficiency [2, 13]: 44%
- “Ready-to-use” S2P RNA, RNA complex. efficiency [2, 14]: 40%
- RBD expression in BHK-21 cells [3, 8]: 0.082 ng/mL
- RBD expression in BHK-21 cells [3, 9]: 1.655 ng/mL
- RBD expression in BHK-21 cells [3, 10]: 1.517 ng/mL
- RBD expression in BHK-21 cells [3, 11]: 2.090 ng/mL
- RBD expression in BHK-21 cells [3, 12]: 1.887 ng/mL
- RBD expression in BHK-21 cells [3, 13]: 0.812 ng/mL
- RBD expression in BHK-21 cells [3, 15]: <LOD
- RBD expression in Vero E6 cells [4, 8]: <LOD
- RBD expression in Vero E6 cells [4, 9]: 0.129 ng/mL
- RBD expression in Vero E6 cells [4, 10]: 1.204 ng/mL
- RBD expression in Vero E6 cells [4, 11]: 1.842 ng/mL
- RBD expression in Vero E6 cells [4, 12]: 1.633 ng/mL
- RBD expression in Vero E6 cells [4, 13]: 1.239 ng/mL
- RBD expression in Vero E6 cells [4, 15]: 0.0939 ng/mL
- PDI, T = 1 month ([5]; 1 month): 0.09
- Size, T = 1 month ([5]; 1 month): 88 nm
- Change in size (nm) vs. T0, T = 2 weeks ([5]; 2 weeks): −9 nm
- PDI, T = 2 weeks ([5]; 2 weeks): 0.06
- Size, T = 2 weeks ([5]; 2 weeks): 79 nm
- PDI, T = 0 ([5]; T = 0): 0.13
- Size, T = 0 ([5]; T = 0): 88 nm

Reference: patent publication US20240390484A1 (priority 2022, published 2024)
